Among the data in PubChem BioAssay AID226 (DTP/NCI, 2004) are T/C values, retold here.

The assay relates to B6C3F1 mice, intracerebral ependymoblastoma, median survival T/C. Briefly: NCI In Vivo Anticancer Drug Screen. Data for tumor model Ependymoblastoma (intracerebral) in B6C3F1 mice. The conditions noted are these: endpoint: median survival time, higher = longer survival. As to the method: The antitumor activity of compounds was measured in mice bearing transplantable tumors. Survival or tumor size were measured and the results are expressed as the measurement made in the treated group (T) divided by the measurement made in the vehicle treated control group (C). The tumor model used in this assay is Ependymoblastoma (intracerebral) in B6C3F1 mice

The mark [1] stands for this setting: dose: 32.0 mg/kg/injection, schedule: Q01DX005 (ip), vehicle: Klucel (hydroxypropylcellulose) (HPC).
[2] abbreviates: dose: 64.0 mg/kg/injection, schedule: Q01DX005 (ip), vehicle: Klucel (hydroxypropylcellulose) (HPC).
[3] abbreviates: dose: 128.0 mg/kg/injection, schedule: Q01DX005 (ip), vehicle: Klucel (hydroxypropylcellulose) (HPC).
[4] abbreviates: dose: 200.0 mg/kg/injection, schedule: Q01DX005 (ip), vehicle: saline with Tween-80.
Setting [5] is: dose: 256.0 mg/kg/injection, schedule: Q01DX005 (ip), vehicle: Klucel (hydroxypropylcellulose) (HPC).

Structures are written as SMILES. Several values for one entry are separate records, joined by “and”; a condition that tells them apart may be missing. Equal values may be shown once. Inconclusive results and toxic doses are left out.

As for `COCC(O)Cn1ccnc1[N+](=O)[O-]` (stereo unspecified), the T/C by setting is: under setting [1], 97 % of control; under setting [2], 96 % of control; (dose: 100.0 mg/kg/injection, schedule: Q01DX005 (ip), vehicle: saline with Tween-80) 97 % of control and 111 % of control; (dose: 100.0 mg/kg/injection, schedule: Q01DX009 (ip), vehicle: saline with Tween-80) 91 % of control and 112 % of control; (dose: 100.0 mg/kg/injection, schedule: Q12HX010 (ip), vehicle: saline with Tween-80) 109 % of control; (dose: 100.0 mg/kg/injection, schedule: Q#A X010 (ip), vehicle: saline with Tween-80) 167 % of control. Besides, the T/C (dose: 100.0 mg/kg/injection, schedule: Q#ADX018 (ip), vehicle: saline with Tween-80) was 86 % of control; the T/C under setting [3] is 93 % of control; the T/C under setting [4] was 106 % of control and 88 % of control; the T/C (dose: 200.0 mg/kg/injection, schedule: Q01DX009 (ip), vehicle: saline with Tween-80) is 94 % of control and 107 % of control; the T/C (dose: 200.0 mg/kg/injection, schedule: Q12HX010 (ip), vehicle: saline with Tween-80) is 118 % of control; the T/C (dose: 200.0 mg/kg/injection, schedule: Q#A X010 (ip), vehicle: saline with Tween-80) was 172 % of control. Besides, the T/C was 94 % of control (dose: 200.0 mg/kg/injection, schedule: Q#ADX018 (ip), vehicle: saline with Tween-80); 92 % of control under setting [5]; 92 % of control and 105 % of control (dose: 400.0 mg/kg/injection, schedule: Q01DX005 (ip), vehicle: saline with Tween-80); 96 % of control and 98 % of control (dose: 400.0 mg/kg/injection, schedule: Q01DX009 (ip), vehicle: saline with Tween-80); 117 % of control (dose: 400.0 mg/kg/injection, schedule: Q12HX010 (ip), vehicle: saline with Tween-80); 167 % of control (dose: 400.0 mg/kg/injection, schedule: Q#A X010 (ip), vehicle: saline with Tween-80). For the same compound, the T/C was 100 % of control (dose: 400.0 mg/kg/injection, schedule: Q#ADX018 (ip), vehicle: saline with Tween-80); 96 % of control (dose: 512.0 mg/kg/injection, schedule: Q01DX005 (ip), vehicle: Klucel (hydroxypropylcellulose) (HPC)); 101 % of control (dose: 800.0 mg/kg/injection, schedule: Q01DX005 (ip), vehicle: saline with Tween-80); 103 % of control and 104 % of control (dose: 800.0 mg/kg/injection, schedule: Q01DX009 (ip), vehicle: saline with Tween-80); 99 % of control (dose: 800.0 mg/kg/injection, schedule: Q12HX010 (ip), vehicle: saline with Tween-80); 165 % of control (dose: 800.0 mg/kg/injection, schedule: Q#A X010 (ip), vehicle: saline with Tween-80). Besides, under “dose: 800.0 mg/kg/injection, schedule: Q#ADX018 (ip), vehicle: saline with Tween-80”, the T/C is 94 % of control.
For `C[C@]12C=CC(=O)C=C1CC[C@@H]1[C@@H]2CC[C@]2(C)OC(=O)CC[C@@H]12`, the T/C by setting is: (dose: 8.0 mg/kg/injection, schedule: Q01DX005 (ip), vehicle: Klucel (hydroxypropylcellulose) (HPC)) 98 % of control and 100 % of control; (dose: 8.0 mg/kg/injection, schedule: Q01DX005 (ip), vehicle: saline with Tween-80) 100 % of control and 113 % of control; (dose: 16.0 mg/kg/injection, schedule: Q01DX005 (ip), vehicle: Klucel (hydroxypropylcellulose) (HPC)) 101 % of control and 106 % of control; (dose: 16.0 mg/kg/injection, schedule: Q01DX005 (ip), vehicle: saline with Tween-80) 97 % of control and 110 % of control; under setting [1], 94 % of control and 95 % of control; (dose: 32.0 mg/kg/injection, schedule: Q01DX005 (ip), vehicle: saline with Tween-80) 97 % of control and 105 % of control. In addition, the T/C under setting [2] was 98 % of control and 101 % of control; the T/C (dose: 64.0 mg/kg/injection, schedule: Q01DX005 (ip), vehicle: saline with Tween-80) was 97 % of control and 105 % of control; the T/C under setting [3] is 96 % of control and 86 % of control; the T/C (dose: 128.0 mg/kg/injection, schedule: Q01DX005 (ip), vehicle: saline with Tween-80) is 96 % of control and 108 % of control; the T/C under setting [5] is 90 % of control; the T/C (dose: 256.0 mg/kg/injection, schedule: Q01DX005 (ip), vehicle: saline with Tween-80) is 105 % of control.
As to `CCOC(OCC)C(=O)OCC(=O)[C@]1(O)Cc2c(O)c3c(c(O)c2[C@@H](OC2CC(N)C(O)C(C)O2)C1)C(=O)c1c(OC)cccc1C3=O` (stereo partly specified), the T/C (dose: 0.12 mg/kg/injection, schedule: Q01DX005 (ip), vehicle: water) is 103 % of control; the T/C (dose: 0.25 mg/kg/injection, schedule: Q01DX005 (ip), vehicle: water) was 102 % of control and 113 % of control; the T/C (dose: 0.5 mg/kg/injection, schedule: Q01DX005 (ip), vehicle: water) was 101 % of control and 105 % of control; the T/C (dose: 1.0 mg/kg/injection, schedule: Q01DX005 (ip), vehicle: water) is 98 % of control and 109 % of control; the T/C (dose: 2.0 mg/kg/injection, schedule: Q01DX005 (ip), vehicle: water) was 101 % of control and 103 % of control; the T/C (dose: 4.0 mg/kg/injection, schedule: Q01DX005 (ip), vehicle: water) is 109 % of control.
On to `CO[C@H]1C[C@@H]2CC[C@@H](C)[C@@](O)(O2)C(=O)C(=O)N2CCCC[C@H]2C(=O)O[C@H]([C@H](C)C[C@@H]2CC[C@@H](O)[C@H](OC)C2)CC(=O)[C@H](C)C=C(C)[C@@H](O)[C@@H](OC)C(=O)[C@H](C)C[C@H](C)/C=C/C=C/C=C1C`, for which the T/C runs as follows: (dose: 3.12 mg/kg/injection, schedule: Q01DX009 (ip), vehicle: clinical formulation) 118 % of control; (dose: 6.25 mg/kg/injection, schedule: Q01DX005 (ip), vehicle: saline with Tween-80) 113 % of control; (dose: 12.5 mg/kg/injection, schedule: Q01DX009 (ip), vehicle: gum acacia) 202 % of control; (dose: 25.0 mg/kg/injection, schedule: Q01DX005 (oral), vehicle: saline with Tween-80) 106 % of control; (dose: 25.0 mg/kg/injection, schedule: Q01DX009 (ip), vehicle: clinical formulation) 156 % of control; (dose: 25.0 mg/kg/injection, schedule: Q01DX009 (ip), vehicle: gum acacia) 198 % of control. Also, the T/C (dose: 50.0 mg/kg/injection, schedule: Q01DX005 (oral), vehicle: saline with Tween-80) was 107 % of control and 108 % of control; the T/C (dose: 50.0 mg/kg/injection, schedule: Q01DX009 (ip), vehicle: clinical formulation) is 152 % of control and 156 % of control; the T/C (dose: 50.0 mg/kg/injection, schedule: Q01DX009 (ip), vehicle: gum acacia) was 177 % of control; the T/C (dose: 100.0 mg/kg/injection, schedule: Q01DX005 (oral), vehicle: saline with Tween-80) is 100 % of control and 107 % of control; the T/C (dose: 100.0 mg/kg/injection, schedule: Q01DX009 (ip), vehicle: clinical formulation) is 162 % of control and 167 % of control; the T/C (dose: 100.0 mg/kg/injection, schedule: Q01DX009 (ip), vehicle: gum acacia) is 185 % of control. Besides, the T/C by setting is: under setting [4], 113 % of control and 193 % of control and 207 % of control; (dose: 200.0 mg/kg/injection, schedule: Q01DX005 (oral), vehicle: saline with Tween-80) 103 % of control and 108 % of control; (dose: 400.0 mg/kg/injection, schedule: Q01DX005 (oral), vehicle: saline with Tween-80) 108 % of control and 119 % of control; (dose: 400.0 mg/kg/injection, schedule: Q01DX009 (ip), vehicle: gum acacia) 198 % of control; (dose: 800.0 mg/kg/injection, schedule: Q01DX005 (oral), vehicle: saline with Tween-80) 124 % of control.
`CN1CCC23c4c5ccc(O)c4OC2C(O)C=CC3C1C5` (stereo unspecified): the T/C reads like this: (dose: 32.0 mg/kg/injection, schedule: Q01DX005 (ip), vehicle: saline) 112 % of control; (dose: 64.0 mg/kg/injection, schedule: Q01DX005 (ip), vehicle: saline) 101 % of control; (dose: 128.0 mg/kg/injection, schedule: Q01DX005 (ip), vehicle: saline) 99 % of control.
For `Cn1cnc([N+](=O)[O-])c1Sc1nc(N)nc2c1ncn2C1OC(CO)C(O)C1O` (stereo unspecified), the T/C is 109 % of control (dose: 6.25 mg/kg/injection, schedule: Q01DX005 (ip), vehicle: suspension in saline); 115 % of control (dose: 12.5 mg/kg/injection, schedule: Q01DX005 (ip), vehicle: suspension in saline); 107 % of control (dose: 25.0 mg/kg/injection, schedule: Q01DX005 (ip), vehicle: suspension in saline).
